{
  "source": "patent US10858384B2",
  "about": "“Synthetic molecule constructs” (KODE BIOTECH LIMITED, priority 2004, dated 2020)",
  "key": {"[1]": {"test_system": "RBCs", "assay": "Detectable transformation ability of synthetic glycolipids (agglutination)", "type": "cell-based", "conditions": "agglutination with the appropriate antibody", "source_text": "The synthetic glycolipid must also be able to insert into the membrane and be recognisable to the appropriate antibody for transformation to be detected by agglutination. Initial tests on the molecules were to establish solubility and thus eliminate those molecules that were unsuitable for use in the transformation of cells."}, "[2]": {"assay": "Solubility of synthetic glycolipids in hot PBS", "type": "physicochemical", "source_text": "In the context of this description the phrase “water soluble” means a stable, single phase system is formed when the synthetic molecule construct is contacted with water or saline (such as PBS) in the absence of organic solvents or detergents, and the term “solution” has a corresponding meaning.\nFor use in the transformation of cells the first criterion that synthetic glycolipids must satisfy is that they are soluble in aqueous solvents, e.g. phosphate buffered saline.\nInitial tests on the molecules were to establish solubility and thus eliminate those molecules that were unsuitable for use in the transformation of cells."}, "[3]": {"test_system": "group O red blood cells (RBCs)", "assay": "Diamed gel-card agglutination of group O RBCs transformed at 37° C. with synthetic glycolipids", "type": "cell-based, human", "design": "scale not given here", "experimental": "(§1) Washed packed group O red blood cells (RBCs) (3 parts by volume) and the synthetic glycolipid solution (1 part by volume, varying concentrations) were added to an eppendorf tube. The tube was incubated in a 37° C. waterbath for one hour, mixing every 15 minutes. […]\n(§2) Tube serology and Diamed gel-card results for RBCs transformed with the different synthetic molecule constructs are provided in Table 38. Results for the stability of the RBCs transformed with the different synthetic glycolipids at different concentrations are provided in Tables 39 to 44."}, "[4]": {"test_system": "RBCs", "assay": "Evaluation of insertion of different lipid tails by agglutination with the relevant antisera", "type": "cell-based", "design": "scale not given here", "source_text": "Transformation of RBCs with synthetic glycolipids with different lipid tails was first evaluated (Tables 22 and 24)."}, "[5]": {"test_system": "group O red blood cells (RBCs)", "assay": "Tube serology of group O RBCs transformed at 37° C. with synthetic glycolipids", "type": "cell-based, human", "design": "Albaclone anti-A, Tube / Bioclone anti-A, Tube: scale not given here", "experimental": "as §1, §2"}, "[6]": {"test_system": "Mouse RBCs", "assay": "Tube serology of murine RBCs transformed with H-antigen synthetic glycolipids", "type": "cell-based", "conditions": "for H Antisera IgM, Tube: mouse RBCs; for Agglutination, UEA-1: tube serology", "experimental": "Washed packed mouse RBCs (3 parts by volume) and the synthetic glycolipid solutions (1 part by volume of varying concentrations) were added to an eppendorf tube. The tube was incubated in a 37° C. waterbath for one hour, mixing every 15 minutes. The transformed RBCs were washed 3× with PBS and then suspended in Cellstab™ at the appropriate concentration for serology testing.\nMurine RBCs were washed 3× in 1× PBS. 30 μl of packed RBCs were combined with 30 μl of Hdi-sp-Ad-DOPE (VIII), and 30 μl of packed RBCs were combined with 30 μl Galβ-sp-Ad-DOPE (IX), respectively. Both synthetic molecule constructs were at a concentration of 1.0 mg/ml. 30 μl of 1× PBS was added to 30 μl of packed RBCs to act as the control group. Cells were incubated for 90 minutes in a 37° C. shaking water-bath. RBCs were washed 3× in 1× PBS.\nThree groups of packed RBCs were incubated with an equal volume of lectin UEA-1 for 30 minutes at room temperature. The lectin was prepared in 1× PBS at a concentration of 0.1 mg/ml. 50 μl of a 3% cell suspension was spun for 15 seconds in an Immunofuge at low speed. Results were read by tube serology."}, "[7]": {"test_system": "red blood cells", "assay": "Association of KODE-fluorescein with cell membranes (fluorescence microscope)", "type": "cell-based", "source_text": "FIG. 20. Red blood cells following contact with a synthetic molecule construct (XVI) viewed with a fluorescence microscope at 470 nm under 250× magnification.\nA medium to strongly fluorescing cell was considered to indicate a uniform distribution of the molecule across the cell membrane (FIG. 20)."}},
  "note": "Read-outs that look alike come from different tables or passages of the source.",
  "data": [
    {"smiles": "CCCCCCCCCCCCCCCCCC(=O)OC[C@H](COP(=O)(O)OCCNC(=O)CCCCC(=O)NCCCO[C@@H]1O[C@H](CO)[C@H](O)[C@H](O[C@H]2O[C@H](CO)[C@H](O)[C@H](O)[C@H]2NC(C)=O)[C@H]1O[C@@H]1O[C@@H](C)[C@@H](O)[C@@H](O)[C@@H]1O)OC(=O)CCCCCCCCCCCCCCCCC", "note": "[Atri-sp-Ad-DSPE (III)]", "values": [
      {"measurement": "Detectable transformation ability", "setting": "[1]", "result": "Yes"},
      {"measurement": "Water solubility", "setting": "[2]; hot PBS", "result": "Yes"},
      {"measurement": "Albaclone anti-A, Diamed", "setting": "[3]; 0.01 mg/mL", "result": 0},
      {"measurement": "Bioclone anti-A, Diamed", "setting": "[3]; 0.01 mg/mL", "result": 0},
      {"measurement": "Albaclone anti-A, Diamed", "setting": "[3]; 0.05 mg/mL", "result": 0},
      {"measurement": "Bioclone anti-A, Diamed", "setting": "[3]; 0.05 mg/mL", "result": 0},
      {"measurement": "Albaclone anti-A, Diamed", "setting": "[3]; 0.1 mg/mL", "result": 0},
      {"measurement": "Bioclone anti-A, Diamed", "setting": "[3]; 0.1 mg/mL", "result": 0},
      {"measurement": "Albaclone anti-A, Diamed", "setting": "[3]; 0.25 mg/mL", "result": 0},
      {"measurement": "Bioclone anti-A, Diamed", "setting": "[3]; 0.25 mg/mL", "result": 0},
      {"measurement": "Agglutination score", "setting": "[4]; 10 μg/mL, Alba anti-A, first series", "result": 0},
      {"measurement": "Agglutination score", "setting": "[4]; 10 μg/mL, Bio anti-A, first series", "result": 0},
      {"measurement": "Agglutination score", "setting": "[4]; 20 μg/mL, Alba anti-A, first series", "result": 0},
      {"measurement": "Agglutination score", "setting": "[4]; 20 μg/mL, Bio anti-A, first series", "result": 0},
      {"measurement": "Agglutination score", "setting": "[4]; 30 μg/mL, Alba anti-A, first series", "result": 0},
      {"measurement": "Agglutination score", "setting": "[4]; 30 μg/mL, Bio anti-A, first series", "result": 0},
      {"measurement": "Agglutination score", "setting": "[4]; 40 μg/mL, Alba anti-A, first series", "result": 0},
      {"measurement": "Agglutination score", "setting": "[4]; 40 μg/mL, Bio anti-A, first series", "result": 0},
      {"measurement": "Agglutination score", "setting": "[4]; 50 μg/mL, Alba anti-A, first series", "result": 0},
      {"measurement": "Agglutination score", "setting": "[4]; 50 μg/mL, Bio anti-A, first series", "result": 0},
      {"measurement": "Agglutination score", "setting": "[4]; 1000 μg/mL, DBA", "result": 0},
      {"measurement": "Albaclone anti-A, Tube", "setting": "[5]; 0.01 mg/mL", "result": 0},
      {"measurement": "Bioclone anti-A, Tube", "setting": "[5]; 0.01 mg/mL", "result": 0},
      {"measurement": "Albaclone anti-A, Tube", "setting": "[5]; 0.02 mg/mL", "result": 0},
      {"measurement": "Bioclone anti-A, Tube", "setting": "[5]; 0.02 mg/mL", "result": 0},
      {"measurement": "Albaclone anti-A, Tube", "setting": "[5]; 0.03 mg/mL", "result": 0},
      {"measurement": "Bioclone anti-A, Tube", "setting": "[5]; 0.03 mg/mL", "result": 0},
      {"measurement": "Albaclone anti-A, Tube", "setting": "[5]; 0.04 mg/mL", "result": 0},
      {"measurement": "Bioclone anti-A, Tube", "setting": "[5]; 0.04 mg/mL", "result": 0},
      {"measurement": "Albaclone anti-A, Tube", "setting": "[5]; 0.05 mg/mL", "result": 0},
      {"measurement": "Bioclone anti-A, Tube", "setting": "[5]; 0.05 mg/mL", "result": 0}
    ]},
    {"smiles": "CCCCCCCC/C=C\\CCCCCCCC(=O)OC[C@H](COP(=O)(O)OCCNC(=O)CCCCC(=O)NCCCO[C@@H]1O[C@H](CO)[C@H](O)[C@H](O)[C@H]1O)OC(=O)CCCCCCC/C=C\\CCCCCCCC", "note": "[Galβ-sp-Ad-DOPE (IX)]", "values": [
      {"measurement": "Detectable transformation ability", "setting": "[1]", "result": "lack of detectable transformation and No"},
      {"measurement": "Water solubility", "setting": "[2]", "result": "Yes"},
      {"measurement": "H Antisera IgM, Tube", "setting": "[6]; 0.01 mg/mL", "result": 0},
      {"measurement": "H Antisera IgM, Tube", "setting": "[6]; 0.05 mg/mL", "result": 0},
      {"measurement": "H Antisera IgM, Tube", "setting": "[6]; 0.1 mg/mL", "result": 0},
      {"measurement": "H Antisera IgM, Tube", "setting": "[6]; 0.25 mg/mL", "result": 0}
    ]},
    {"smiles": "CCCCCCCC/C=C\\CCCCCCCC(=O)OC[C@H](COP(=O)(O)OCCNC(=O)CCCCC(=O)NCCCO[C@@H]1O[C@H](CO)[C@H](O)[C@H](O)[C@H]1O)OC(=O)CCCCCCC/C=C\\CCCCCCCC", "note": "[Galβ]", "values": [
      {"measurement": "Agglutination, UEA-1", "setting": "[6]; Murine RBC, 1 mg/ml", "result": 0}
    ]},
    {"smiles": "CCCCCCCC/C=C\\CCCCCCCC(=O)OC[C@H](COP(=O)(O)OCCNC(=O)CCCCC(=O)NCCCO[C@@H]1O[C@H](CO)[C@H](O)[C@H](O)[C@H]1O[C@@H]1O[C@@H](C)[C@@H](O)[C@@H](O)[C@@H]1O)OC(=O)CCCCCCC/C=C\\CCCCCCCC", "note": "[Hdi-sp-Ad-DOPE (VIII)]", "values": [
      {"measurement": "Detectable transformation ability", "setting": "[1]", "result": "lack of detectable transformation and No"},
      {"measurement": "Water solubility", "setting": "[2]; hot PBS", "result": "Yes"},
      {"measurement": "H Antisera IgM, Tube", "setting": "[6]; 0.01 mg/mL", "result": 0},
      {"measurement": "H Antisera IgM, Tube", "setting": "[6]; 0.05 mg/mL", "result": 0},
      {"measurement": "H Antisera IgM, Tube", "setting": "[6]; 0.1 mg/mL", "result": 0},
      {"measurement": "H Antisera IgM, Tube", "setting": "[6]; 0.25 mg/mL", "result": 0},
      {"measurement": "Detection of transformed murine RBCs by anti-H IgM and UEA-1", "setting": "[6]; 1.0 mg/ml, 37° C. 90 minutes", "result": "neither anti-H IgM nor UEA-1 detects"},
      {"measurement": "Agglutination, Mouse IgM^H", "setting": "[6]; Murine RBC, 1 mg/ml", "result": 0},
      {"measurement": "Agglutination, UEA-1", "setting": "[6]; Murine RBC, 1 mg/ml", "result": 0}
    ]},
    {"smiles": "CCCCCCCCC=CCCCCCCCC(=O)OCC(COP(=O)(O)OCCNC(=O)CCCCC(=O)NCCCCCNC(=S)Nc1ccc(-c2c3ccc(=O)cc-3oc3cc(O)ccc23)c(C(=O)O)c1)OC(=O)CCCCCCCC=CCCCCCCCC", "note": "(centres unmarked) [KODE-fluorescein (I)]", "values": [
      {"measurement": "Association with the membrane of red blood cells", "setting": "[7]", "result": "readily associates"},
      {"measurement": "Concentration of dispersion at which insertion is observed", "setting": "[7]", "result": "greater than 0.1 mg/ml"},
      {"measurement": "Period for which incorporation and distribution appears stable", "setting": "[7]; cells stored in the dark", "result": "at least 40 days"}
    ]}
  ]
}
